Experimental data reported in US20160186187A1, “REGULATABLE GENE EXPRESSION” (BIOSYNTIA APS, priority 2013, published 2016).
Entries after “also recorded” stand apart in the source; their conditions may differ.

What was measured:
EcpGEBO5.1 [1] = assay: Growth response of EcpGEBO5.1 for xanthine alkaloids (plate selection assay); type: cell-based, Escherichia coli; details: for Growth, Selection: ampicillin 50 μg/mL, spectinomycin 80 μg/mL, chloramphenicol 30 μg/mL; for Growth, No Selection: plates without spectinomycin and chloramphenicol
Protocol: The growth response of EcpGEBO5.1 for 4 different xanthine alkaloids was determined empirically using a selection assay with varying concentrations xanthine-based compounds: theophylline, xanthine, theobromine and caffeine.
Procedure: 300-400 colony forming units were plated on plates containing ampicillin (50 μg/mL), spectinomycin (80 μg/mL), chloramphenicol (30 μg/mL) and the indicated concentration of xanthine-based compound—see Table 2: Dissociation constants (KJ for the xanthines with the aptamer region (mCTC8-4 aptamer) previously determined (Jenison et al., 1994). No selection means plates without spectinomycin and chloramphenicol. (+) means growth was observed. (−) means no growth was observed. (˜) means reduced growth was observed.

mCTC8-4 aptamer = details: previously determined (Jenison et al., 1994); cited from earlier work
EcpGEBO5.1 + pZE21 = assay: Growth response to xanthine in M9 minimal medium, control strain; type: cell-based, Escherichia coli; details: for OD600 of EcpGEBO5.1 + pZE21: selection (chloramphenicol 30 μg/ml, spectinomycin 80 μg/ml), 16 h
Protocol: (§1) In order to test the hypothesis, growth experiments with and without xanthine was performed. First, in order eliminate the putative contribution of any background mutation of the genome or of the pGEBO5.1 assay plasmid the library plasmid encoding the putative xanthine permease (pZE21_1H) from the AB95D01 soil metagenomic library was extracted and retransformed in strain EcpGEBO5.1. Instead of testing the strain in LB-medium, xanthine-free M9 minimal medium was used to test the effect of defined xanthine concentrations. Strain EcpGEBO5.1 transformed with the empty cloning vector pZE21 (EcpGEBO5.1+pZE21) was used as a control. Both strains were inoculated in 3 ml M9 minimal medium supplemented with kanamycin 50 μg/ml and ampicillin 50 μg/ml and grown overnight. The next day a new 3 ml culture was prepared under same conditions and inoculated by transferring 30 μl from the initial culture. At exponential phase (when the optical density at 600 nm (0D600) had reached ˜0.5) the culture was used to inoculate 200 μl M9 minimal selective media in a microtiterplate with varying concentrations of xanthine (Table below). Inoculums were diluted such that the initial OD600 of each culture was exactly 0.01. The microtiter plate was incubated at 37° C. in an ELx808 Absorbance Microtiterplate Reader from Biotek with shaking at 200 rpm. OD600 was measured after 16 h and the average and standard deviation was calculated from three biological replicates of each xanthine concentration. When grown in concentrations of xanthine ranging from 0 mM to 1 mM but no chloramphenicol or spectinomycin both strains were unaffected by the presence of xanthine. When applying selection (chloramphenicol 30 μg/ml and spectinomycin 80 μg/ml), growth was observed only for the strain harbouring the xanthine permease containing plasmid (pZE21_1H) and only when xanthine was added (Table 3). The experiment confirms the prediction that the DNA insert is encoding a xanthine permease protein, and that the increased xanthine uptake enables growth under selective conditions.

EcpGEBO5.1 + pZE21_1H = assay: Growth response to xanthine in M9 minimal medium, xanthine permease strain; type: cell-based, Escherichia coli; details: for OD600 of EcpGEBO5.1 + pZE21_1H: selection (chloramphenicol 30 μg/ml, spectinomycin 80 μg/ml), 16 h
Protocol: as §1

EcpGEBO5.1 [2] = assay: Spontaneous resistance of EcpGEBO5.1 in single and dual antibiotic selection (plating); type: cell-based, Escherichia coli; details: for Growth on antibiotic plate: LB agar, chloramphenicol 30 μg/mL and/or spectinomycin 80 μg/mL; for Colonies on single selection plates (in words): three plates each, 24 h of incubation
Protocol: pGEBO5.1 was transformed into E. coli Dh10B cells (forming EcpGEBO5.1) using standard methods known to the skilled person. To test whether the double selection system solved the problem of spontaneous resistance, plating of up to 1.3×10^8 EcpGEBO5.1 cells was performed in 10 replicates on LB agar media containing spectinomycin (80 μg/mL) and chloramphenicol (30 μg/mL) (‘dual selection’). As a control, plating on plates containing only chloramphenicol (30 μg/mL) or spectinomycin (80 μg/mL) (‘single selection’) was each performed in triplicate (See Table 1). Each plate was incubated for 72 hours. Of the 10 plates with dual selection no colonies were observed within the first 48 hours of incubation. […] Therefore, it appears that the probability of a single mutation to confer spontaneous resistance to one antibiotic is significant whereas the probability of a simultaneous double mutation to confer spontaneous resistance to both antibiotics is effectively nil.

[3] = xanthine 0 mM to 1 mM, no chloramphenicol or spectinomycin
[4] = 1.3 × 10^6 CFU plated (1 ul), 24 h growth
[5] = 1.3 × 10^6 CFU plated (1 ul), 48 h growth
[6] = 1.3 × 10^6 CFU plated (1 ul), 72 h growth
[7] = 1.3 × 10^7 CFU plated (10 ul), 24 h growth
[8] = 1.3 × 10^7 CFU plated (10 ul), 48 h growth
[9] = 1.3 × 10^7 CFU plated (10 ul), 72 h growth

| Compound | Kd (mCTC8-4 aptamer) | Growth, Selection (EcpGEBO5.1 [1]; 1 mM xanthine compound) | Growth, No Selection (EcpGEBO5.1 [1]; 1 mM xanthine compound) | Growth on antibiotic plate (EcpGEBO5.1 [2]; [4]) | Growth on antibiotic plate (EcpGEBO5.1 [2]; [5]) | Growth on antibiotic plate (EcpGEBO5.1 [2]; [6]) | Growth on antibiotic plate (EcpGEBO5.1 [2]; [7]) | Growth on antibiotic plate (EcpGEBO5.1 [2]; [8]) | Growth on antibiotic plate (EcpGEBO5.1 [2]; [9]) | Colonies on single selection plates (in words) (EcpGEBO5.1 [2]) | other results |
| --- | --- | --- | --- | --- | --- | --- | --- | --- | --- | --- | --- |
| Cn1c(=O)c2c(ncn2C)n(C)c1=O [Caffeine, caffeine] | 3500 ± 1500 µM |  |  |  |  |  |  |  |  |  | Growth, Selection (EcpGEBO5.1 [1]; 3 mM xanthine compound): −; Growth, No Selection (EcpGEBO5.1 [1]; 3 mM xanthine compound): +; Growth, Selection (EcpGEBO5.1 [1]; 7 mM xanthine compound): − |
| Cn1cnc2c1c(=O)[nH]c(=O)n2C [Theobromine, theobromine] | > 500 µM | − | + |  |  |  |  |  |  |  |  |
| Cn1c(=O)c2[nH]cnc2n(C)c1=O [Theophylline, theophylline] | 0.32 ± 0.13 µM |  |  |  |  |  |  |  |  |  | Growth, No Selection (EcpGEBO5.1 [1]; 0.1 mM xanthine compound): +; Growth, Selection (EcpGEBO5.1 [1]; 2 mM xanthine compound): +; Growth, No Selection (EcpGEBO5.1 [1]; 2 mM xanthine compound): + |
| O=c1[nH]c(=O)c2[nH]cnc2[nH]1 [Xanthine, xanthine] | 8.5 ± 0.4 µM | − | + |  |  |  |  |  |  |  | Growth of EcpGEBO5.1 under selective conditions (in words) (EcpGEBO5.1 [1]; 1 mM xanthine in the growth medium): lack of growth; also recorded: did not enable growth; Effect of xanthine on growth without selection (EcpGEBO5.1 + pZE21; [3]): unaffected; OD600 of EcpGEBO5.1 + pZE21 (EcpGEBO5.1 + pZE21; xanthine 1.0 μM): 0.02 ± 0.00; OD600 of EcpGEBO5.1 + pZE21 (EcpGEBO5.1 + pZE21; xanthine 1.5 μM): 0.02 ± 0.00; OD600 of EcpGEBO5.1 + pZE21 (EcpGEBO5.1 + pZE21; xanthine 2.0 μM): 0.02 ± 0.00; OD600 of EcpGEBO5.1 + pZE21 (EcpGEBO5.1 + pZE21; xanthine 2.5 μM): 0.03 ± 0.00; OD600 of EcpGEBO5.1 + pZE21 (EcpGEBO5.1 + pZE21; xanthine 4.5 μM): 0.03 ± 0.00; OD600 of EcpGEBO5.1 + pZE21 (EcpGEBO5.1 + pZE21; xanthine 12.5 μM): 0.03 ± 0.01; Effect of xanthine on growth without selection (EcpGEBO5.1 + pZE21_1H; [3]): unaffected; OD600 of EcpGEBO5.1 + pZE21_1H (EcpGEBO5.1 + pZE21_1H; xanthine 1.0 μM): 0.17 ± 0.01; OD600 of EcpGEBO5.1 + pZE21_1H (EcpGEBO5.1 + pZE21_1H; xanthine 1.5 μM): 0.29 ± 0.01; OD600 of EcpGEBO5.1 + pZE21_1H (EcpGEBO5.1 + pZE21_1H; xanthine 2.0 μM): 0.37 ± 0.00; OD600 of EcpGEBO5.1 + pZE21_1H (EcpGEBO5.1 + pZE21_1H; xanthine 2.5 μM): 0.42 ± 0.00; OD600 of EcpGEBO5.1 + pZE21_1H (EcpGEBO5.1 + pZE21_1H; xanthine 4.5 μM): 0.50 ± 0.01; OD600 of EcpGEBO5.1 + pZE21_1H (EcpGEBO5.1 + pZE21_1H; xanthine 12.5 μM): 0.51 ± 0.01 |
| O=C(N[C@H](CO)[C@H](O)c1ccc([N+](=O)[O-])cc1)C(Cl)Cl [chloramphenicol] |  |  |  | − | + (‘+’ single colonies (1-1000)) | + (‘+’ single colonies (1-1000)) | + (‘+’ single colonies (1-1000)) | ++ | ++ | numerous colonies |  |
| CN[C@@H]1[C@H](O)[C@H](NC)[C@H]2O[C@@]3(O)C(=O)C[C@@H](C)O[C@H]3O[C@@H]2[C@H]1O [spectinomycin] |  |  |  | + (‘+’ single colonies (1-1000)) | ++ | ++ | + (‘+’ single colonies (1-1000)) | ++ | ++ | numerous colonies |  |
